Results as given in patent publication US9149572B2, “Chondroitin sulfate having decreased molecular weight and use thereof” (Seikagaku Corporation, priority 2007, dated 2015).

How the values were obtained:
AGE production = experiment: Inhibition of AGE production (glucose and bovine serum albumin, fluorescence), Example 5; format: biochemical; details: positive control substance 1 mM; 37° C., 4 weeks
Procedure: An experiment was performed according to the method of T. Kiho et al. (Biosci Biotechnol Biochem, 68: 200, 2004). To be more specific, a test substance was dissolved in 0.1 M phosphate buffer (pH 7.4) containing 500 mM glucose and 10 mg/mL bovine serum albumin at a concentration of 0.1% (w/v), and the resulting solution was incubated at 37° C. for 4 weeks. After 4 weeks, a value of fluorescence emitted by AGE was measured at an excitation light wavelength of 355 nm and a measurement wavelength of 460 nm, and the amount of produced AGE was determined, and then, an inhibition rate of AGE production was calculated according to the following calculation equation. Inhibition rate of AGE production(%)=[1−(Fluorescence value when test substance was added)/(Fluorescence value when test substance was not added)]×100 [Equation 1] (Experimental Results)
Incidentally, as the test substance, the following substances were used. Further, as a positive control substance, 1 mM aminoguanidine (a known AGE production inhibitor) was used.

[1] = system: HL-60 cells differentiated into neutrophil-like cells; experiment: ROS scavenging in phorbol ester-stimulated HL-60 cells (L-012 luminescence), Example 6; format: cell-based
Procedure: An experiment was performed according to the method of Olga T. et al. (Toxicological Science, 76: 376, 2003). To be more specific, HL-60 cells differentiated into neutrophil-like cells were suspended in a culture medium at 2×10^6 cells/mL, and the resulting cell suspension was added to a 96-well plate at 50 μL/well. Then, a test substance was added to the well at 50 μL/well (final concentration: 0.03%, 0.1%, and 0.3% (w/v)). Further, the culture medium was added to the well as a negative control at 50 μL/well. […] As a background, the plate to which the culture medium was added in place of the phorbol ester was incubated in the same manner. After completion of the incubation, a luminescence intensity (CPS) was measured using a multilabel counter, ARVOSX 1420 (manufactured by PerkinElmer) and an ROS scavenging rate was calculated according to the following calculation equation. […] Incidentally, as the test substance, the following substances were used. Further, as a positive control substance, 20 nM staurosporine (a known phorbol ester signal inhibitor) was used.

[2] = system: peritoneum (ultrafiltration capacity); experiment: Peritoneal equilibration test after repeated peritoneal dialysis fluid administration (water removal rate), Example 3; format: in vivo, Wistar male rat; details: 0.1% (w/v) in Midpeliq 250, into the peritoneal cavity once daily 15 mL/body for 7 days; vs control group; FIG. 1; CSC 10 kDa by method of Example 2
Procedure: To a Wistar male rat at 8 weeks of age, Midpeliq 250 (trade name, a peritoneal dialysis fluid containing glucose at a concentration of 2.5% (w/v) manufactured by Terumo Corporation) in which a test substance was dissolved at a concentration of 0.1% (w/v) was repetitively administered into the peritoneal cavity once daily at 15 mL/body for 7 days under ether anesthesia. To a control group (Control), Midpeliq 250 was administered in the same manner. On the next day after the final administration, a peritoneal equilibration test was performed, and the peritoneal function was evaluated. To be more specific, Midpeliq 250 was injected into the peritoneal cavity at 60 mL/kg, and 4 hours thereafter, the fluid remaining in the peritoneal cavity was recovered. The amount of the recovered fluid was measured, and the ultrafiltration capacity (water removal rate) of the peritoneum was evaluated.

[3] = Table 4, test substance 0.1% (w/v), CSC 10 kDa by method of Example 1

| Compound | ROS scavenging rate [1, 3] | further results |
| --- | --- | --- |
| N=C(N)NN [Aminoguanidine, aminoguanidine] |  | Inhibition rate of AGE production (AGE production): 52.7% |
| CN[C@@H]1C[C@H]2O[C@@](C)([C@@H]1OC)n1c3ccccc3c3c4c(c5c6ccccc6n2c5c31)C(=O)NC4 [Staurosporine, staurosporine, reference compound] |  | ROS scavenging rate ([1]; Table 4, positive control substance 20 nM): 97.4%; ROS scavenging rate ([1]; Table 5, positive control substance 20 nM): 98.1% |
| Chondroitin sulfate A, sodium salt (whale cartilage), SG [CSA 30 kDa] | 33.4% |  |
| Chondroitin sulfate C, sodium salt (shark cartilage), SG [CSC 30 kDa] | 5.0% | effect of protecting the peritoneum (action of inhibiting a decrease in water removal rate) [2]: statistically significant effect was not observed |
| Chondroitin sulfate E, sodium salt (squid cartilage) [CSE 75 kDa] | 21.9% |  |
| Chondroitin, sodium salt [Ch 5 kDa] | 13.6% |  |
